From patent US8017828B2, “Utilization of rare sugars in plant or microorganism” (Shikoku Research Institute Incorporated, priority 2004, dated 2011)

Experiments:
[1] = system: Aspergillus niger, Cladosporium cladosporioides and Penicillium chrysogenum; experiment: Mycelial elongation of filamentous fungi on agar with rare sugar; assay type: cell-based; settings: 0.05% (w/v) in agar medium, 25° C., 4 days
Description: By using as targets, Aspergillus niger, Cladosporium cladosporioides and Penicillium chrysogenum, which are typical filamentous fungi and generally seen in a living environment, an effect of a rare sugar on mycelial elongation was examined.
As the test fungal strains, NBRC 4066 strain, NBRC 4459 strain and NBRC 4626 strain were used.
Each test fungal strain was cultured on a potato dextrose agar medium at 25° C. for 7 days, and one in which the mycelium extended over the surface of the dish was pushed out along with the agar medium in such a manner that the agar medium was in a disc form with a diameter of 1.1 cm, which was placed at the center of a dish filled with an agar medium (1% Bacto agar) supplemented with any of a variety of rare sugars (allitol, D-altrose, L-mannose, L-galactose, D-tagatose, D-sorbose, D-psicose, D-allose, D-glucose and D-fructose) at 0.05% (w/v) and cultured at 25° C. for 4 days. After the cultivation, the length of the mycelium extending on the surface of the culture medium was measured. Two culture media were prepared for each test plot, and the mycelial length represents the average thereof.

[2] = system: Fusarium oxysporum, Glomerella cingulata, Verticillium dahliae and Botrytlis cinerea; experiment: Mycelial elongation of plant pathogenic bacteria on agar with rare sugar; assay type: cell-based; settings: 0.05% (w/v) in agar medium, 23° C., 7 days
Description: By using as targets, Fusarium oxysporum, Glomerella cingulata, Verticillium dahliae and Botrytlis cinerea, which are typical plant pathogenic bacteria, an effect of a rare sugar on mycelial elongation was examined.
As the test bacterial strains, IFO 31213 strain, IFO 6425 strain, IFO 9765 strain and IFO 9760 strain were used.
After the cultivation, the length of the extending mycelium was measured.

chitinase gene = experiment: Northern blotting of chitinase gene expression in sprayed cut leaves of rough lemon; assay type: in vivo; settings: 0.5 mM sprayed on cut leaves, 2 to 48 hours
Description: Cut leaves of rough lemon were treated by spraying each of 0.5 mM L-psicose, L- & D-tagatose and D-sorbose thereon and were let stand for 2, 4, 6, 12, 24 and 48 hours at 24° C. under the dark condition in a moist chamber. Then, from the treated leaves, total RNA was extracted and the expression of genes of lipoxygenase and chitinase was analyzed by Northern blotting. The assays and analyses were repeated at least 3 times in all the treated plots, and equivalent results were obtained.

[3] = system: Pythium ultimum IFO 32426 strain; experiment: Oospore formation of Pythium ultimum in sugar solution; assay type: cell-based; settings: 0.05% (w/v) sugar solution, 23° C., 4 days
Description: With regard to Pythium ultimum that causes damping-off of spinach and the like, an effect of a rare sugar on oospore formation was examined.
First, as the Pythium ultimum, IFO 32426 strain was used, and static culture thereof was carried out with 200 ml of V8 medium at 23° C. for 1 week. The resulting mycelial mat was well washed with sterile water and divided into 16 equal parts with forceps. This mycerial body was disentangled uniformly to form a small piece and immersed in 20 ml of a sugar solution at a concentration of 0.05% (w/v) and let stand at 23° C. for 4 days. […] Further, the same experiment was carried out using Pythium zingiberum IFO 30817 strain.

Salsola komarovii = experiment: Seed germination, short-time and continuous treatment (Experiment 2); assay type: in vivo; settings: immersed in 1% solution for 24 hours, in the end; DW 28%
Description: In order to clarify an effect of a short-time treatment, 50 seeds of Salsola komarovii, tomato (Home Momotaro) and sunny lettuce (Red Wave), and 20 seeds of morning glory (Tairin Zaki Kongo) were immersed in any of deionized water, 1% D-psicose, 1% D-allose and 1% L-galactose for 24 hours (25° C., dark), respectively, then, they were lightly washed with deionized water. Then, the seeds were sown in a dish with a diameter of 9 cm having a filter paper placed therein, and germinated under the same condition by poring 5 to 10 ml of deionized water therein. Further, for the comparison, a continuous treatment with 1% D-psicose was carried out in accordance with the same procedure.

[4] = system: Brassica rapa var. amplexicaulis (variety: “Haru Ichiban”); experiment: Foliar spraying of sugar on Brassica rapa var. amplexicaulis; assay type: in vivo; settings: 0.5% solution sprayed
Source text: Brassica rapa var. amplexicaulis is a vegetable in the Brassica family, and flower buds are harvested and used. As the same species of vegetables, broccoli, cauliflower and the like are exemplified, which are important horticultural crops. As for such a vegetable, development of flower buds has a large effect on the crop yield. Therefore, during the house cultivation of Brassica rapa var. amplexicaulis (variety: “Haru Ichiban”), foliar spraying of a sugar solution at a concentration of 0.5% (w/v) was carried out and effects on the growth and the development of flower buds were examined. The seeds of Brassica rapa var. amplexicaulis were sown in a 128-cell tray on Oct. 23, 2003 and raised for about 20 days. Then, the raised seedlings were transplanted for permanent planting with a planting distance of 40 cm on two rows with an inter row space of 50 cm in separate beds filled with soil for cultivation “Hana to Yasai no Tsuchi (garden soil for flowers and vegetables)” (Kurokawa Shubyo En) on Nov. 12, 2003. The cultivation was carried out by a simple fertigation system, and irrigation was carried out for 1 hour on a daily basis with a 2,000-fold dilution of Hyponex through an irrigation tube. The cultivation was carried out in a vinyl house without heating with side windows open. From Dec. 18, 2003, water or a 0.5% (w/v) sugar solution was sprayed onto the whole plant on a three times weekly basis. As for the types of sugars, D-glucose, D-fructose and D-psicose were used and five plants were cultivated for each test plot. On Feb. 23, 2004, three plants of medium size were harvested and a survey was carried out. The survey items were plant length, stem diameter, number of lateral buds, terminal bud weight, total weight of lateral buds and the like.

[5] = system: Arabidopsis thaliana Lan dsberg erecta (LER); experiment: Germination of Arabidopsis thaliana with 8 ketoses; assay type: in vivo; settings: 100 mM aqueous solution
Description: An effect of 8 types of ketoses on germination of Arabidopsis thaliana LER series which was an experimental plant was examined.
Two sheets of filter paper were placed in a dish with a diameter of 3.5 cm, and 30 seeds of Arabidopsis thaliana Lan dsberg erecta (LER) were sown per dish, and 0.5 mL of a treatment liquid was poured therein. Then, the dishes were placed in an environment control chamber under the condition of a constant temperature of 25° C. and 24-hour day length (fluorescent lamp, 70 μmol/m^2/s). After the sowing, a survey was carried out with regard to the number of seeds that germinated at 24-hour interval. As the treatment liquid, 100 mM, 10 mM and 1 mM aqueous solutions of any of D-fructose, D-psicose, D-tagatose, D-sorbose, L-fructose, L-psicose, L-tagatose and L-sorbose, and distilled water were used. The procedure was repeated three times for the respective treatment liquids.

[6] = system: cherry tomato plant “mini carol”; experiment: Hydroponic growth of cherry tomato with 0.05 or 0.5 mM sugar, 10 days; assay type: in vivo; settings: 0.5 mM
Description: Subsequently, a cherry tomato plant “mini carol” was transplanted for permanent planting to a hydroponic apparatus, and a total of 7 treated plots in which a plot without addition (control plot) was added to 6 treated plots with the use of a nutrient solution supplemented with 0.05 mM or 0.5 mM D-psicose, D-fructose or mannitol were prepared. A survey was carried out with regard to the growth at 10 days after the permanent planting. […] The stem diameter was the smallest in the case of 0.5 mM D-psicose. The number of leaves was the smallest in the case of 0.5 mM D-psicose and 0.5 mM mannitol. The root length was the smallest in the case of 0.5 mM psicose.

[7] = system: Fusarium oxysporum (IFO 31213 strain); assay type: in vivo, tomato plant (variety: “House Momotaro”)
Description: By using a tomato plant and a strain of Fusarium oxysporum, which is a typical pathogenic bacterium of tomato, an effect of D-psicose during infection in a stage of raising seedlings thereof was examined.
To be more specific, seeds of a tomato plant (variety: “House Momotaro”) were subjected to an immersion treatment by immersing them in a 0.01% (w/v) D-psicose solution or a 0.007% (w/v) probenazole solution for 15 minutes while stirring slowly, followed by air-drying on sterile gauze, and then used as treated seeds. In the medium culture for raising seedlings (pete:pearlite:vermiculite=2:1:1), 0.01% (w/v) D-psicose or 0.007% (w/v) probenazole was mixed, and the soil was placed in black polypot plant containers with a diameter of 9 cm, and then, 4 seeds of the above treated seeds were sown in each pot. The seeds (20 seeds in total) were sown in 5 pots for each test plot. After sowing, the pots were placed in a growth chamber at 23° C. and 5,000 Lux (12-hour day length), and raising of seedlings was initiated. At 1 month and 2 months after the initiation of raising of seedlings, a suspension of mycelium of Fusarium oxysporum (IFO 31213 strain) was inoculated around the roots, whereby infection with Fusarium oxysporum was caused. After the inoculation of Fusarium oxysporum, the temperature was raised to 30° C., and cultivation was continued. At about 4 months after sowing, a survey was carried out with regard to the survival rate of plants, the conditions of browning of vascular bundles and roots, the stem diameter and the like.

SMILES: O=C[C@@H](O)[C@H](O)[C@H](O)[C@H](O)CO [D-altrose]
- effect on mycelial elongation [1]: have an effect of inhibiting mycelial elongation
- inhibitory effect on mycelial elongation [2]: the highest inhibitory effect

SMILES: O=C(CO)[C@@H](O)[C@@H](O)[C@H](O)CO [D-tagatose]
- induction of the expression of chitinase gene (chitinase gene): more strongly than D-psicose

SMILES: O=C[C@@H](O)[C@H](O)[C@H](O)[C@@H](O)CO [L-galactose]
- oospore formation [3]: inhibited
- effect on mycelial elongation [1]: have an effect of inhibiting mycelial elongation
- germination rate (Salsola komarovii): 34%
- Terminal bud weight ([4]; control (water) 3.0): 9.6 g
- Stem diameter ([4]; control (water) 22.8): 21.7 mm
- Number of lateral buds ([4]; control (water) 32.3): 48.3
- Plant length ([4]; control (water) 49.3): 52.7 cm
- Total weight of lateral buds ([4]; control (water) 235.3): 250.6 g

SMILES: O=C(CO)[C@@H](O)[C@@H](O)[C@@H](O)CO [L-psicose]
- inhibition of germination [5]: not clearly observed

SMILES: OC[C@@H](O)[C@@H](O)[C@H](O)[C@H](O)CO [mannitol, reference compound]
- number of leaves, rank among 7 treated plots [6]: the smallest

SMILES: C=CCOC1=NS(=O)(=O)c2ccccc21 [probenazole, reference compound]
- Vascular bundle browning ratio ([7]; seed immersion (0.01% D-psicose or 0.007% probenazole), no seed treatment 25%): 5%
- Stem diameter ([7]; seed immersion treatment): increased
